This is an account of results in patent publication US8119681B2, “2-[1-phenyl-5-hydroxy or methoxy-4alpha-methyl-hexahydrocyclopenta [ƒ]indazole-5-YL]ethyl phenyl derivatives as glucocorticoid receptor ligands” (Merck Sharp & Dohme Corp., priority 2006, dated 2012).

The structures appear in SMILES notation.

The target in assay [1] is T1, human GR (Homo sapiens, UniProt P04150).
T1 sequence (P04150 1-777): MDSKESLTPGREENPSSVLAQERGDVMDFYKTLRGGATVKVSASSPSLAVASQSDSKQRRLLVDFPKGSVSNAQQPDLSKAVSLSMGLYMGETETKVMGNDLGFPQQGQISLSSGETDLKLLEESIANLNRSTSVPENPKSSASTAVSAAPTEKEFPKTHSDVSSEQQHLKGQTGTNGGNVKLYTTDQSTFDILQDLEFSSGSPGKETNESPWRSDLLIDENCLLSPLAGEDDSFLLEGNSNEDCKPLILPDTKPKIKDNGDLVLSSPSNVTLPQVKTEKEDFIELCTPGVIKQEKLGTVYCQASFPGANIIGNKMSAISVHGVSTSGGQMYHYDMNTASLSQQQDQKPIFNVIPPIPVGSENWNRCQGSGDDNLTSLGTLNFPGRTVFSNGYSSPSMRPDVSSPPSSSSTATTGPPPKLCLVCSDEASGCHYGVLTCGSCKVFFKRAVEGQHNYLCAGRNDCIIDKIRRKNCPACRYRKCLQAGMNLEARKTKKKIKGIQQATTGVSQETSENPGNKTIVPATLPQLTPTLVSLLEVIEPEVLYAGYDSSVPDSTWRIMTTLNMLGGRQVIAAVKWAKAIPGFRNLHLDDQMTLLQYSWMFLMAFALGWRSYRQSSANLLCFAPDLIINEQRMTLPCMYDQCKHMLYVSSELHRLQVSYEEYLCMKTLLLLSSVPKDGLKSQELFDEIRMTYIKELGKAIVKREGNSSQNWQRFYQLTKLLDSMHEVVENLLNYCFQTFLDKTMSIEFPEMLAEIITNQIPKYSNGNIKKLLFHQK
The assay can be described thus: Trans-Activation Modulation of Glucocorticoid Receptor (GRAMMER), MMTV-LUC reporter gene. Type of assay: cell-based. The settings on record: for Emax: A549, read-out: Transactivation A549 Cells GRAMMER Emax (%); for EC50: Table 1, A549 cells, IP = inflection point, read-out: Transactivation A549 Cells GRAMMER IP. Further details: endogenous in cells.

Assay [2] has as its target T1, human GR. The assay can be described thus: Transrepression Assay (GITAR), TNFα-β-lactamase reporter gene in U937 cells. Type of assay: cell-based. The arrangement: U937 cells contain an endogenous glucocorticoid receptor (GR); endogenous in cells; host or cells: U937 cells stably transfected with the TNF-α promoter/β-lactamase reporter only. The conditions noted are these: for EC50: IP = inflection point, read-out: Transrepression U937 Cells GITAR IP; for GITAR > GRAMM % SEP: separation of GITAR Emax over GRAMMER Emax; for Emax: U-937. Summed up:
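Reporter readout used CCF2-AM loading for 70–90 min at room temperature after overnight (~18 h, 37 °C) PMA (5 ng/ml final) and LPS (100 ng/ml final) stimulation of compound-treated (30–45 min) TNFα-β-lactamase U937 cells expressing native GR. Activity was normalised to 100 nM dexamethasone repression.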
(In a reporter assay the amount or activity of a reporter protein is the signal.)

Setting [3] is: 100 nM dexamethasone = 100% activity, read-out: maximal activity in the transrepression assay.
Where [4] appears, read: Table 1, U937 cells, activity repressed by 100 nM dexamethasone = 100%, read-out: Transrepression U937 Cells GITAR Emax (%).

For `C[C@]12Cc3cnn(-c4ccc(F)cc4)c3C=C1CC[C@@]2(O)CCc1cccc(F)c1CNS(=O)(=O)C(Cl)Cl` [Example 85, 1,1-dichloro-N-(2-fluoro-6-{2-[(4αS,5R)-1-(4-fluorophenyl)-5-hydroxy-4α-methyl-1,4,4α,5,6,7-hexahydrocyclopenta[f]indazol-5-yl]ethyl}benzyl)methanesulfonamide], the Emax in assay [1] is 19%; in assay [2] (setting [3]) it was 5 to 100%; in assay [2] (setting [4]) it was 63%. Further, the EC50 is 94 nM in assay [1] and 182 nM in assay [2] (Table 1, U937 cells). In assay [2] (Table 1), the “GITAR > GRAMM % SEP” value was 44%.

Consider `C[C@]12Cc3cnn(-c4ccc(F)cc4)c3C=C1CC[C@@]2(O)CCc1cccc(F)c1CNS(=O)(=O)CC(F)(F)F` [Example 86, 2,2,2-trifluoro-N-(2-fluoro-6-{2-[(4αS,5R)-1-(4-fluorophenyl)-5-hydroxy-4α-methyl-1,4,4α,5,6,7-hexahydrocyclopenta[f]indazol-5-yl]ethyl}benzyl)ethanesulfonamide], for which the Emax was 13% in assay [1], 5 to 100% in assay [2] (setting [3]) and 66% in assay [2] (setting [4]). The EC50 in assay [1] was 211 nM; in assay [2] (Table 1, U937 cells), 246 nM. In addition, in assay [2] (Table 1), the “GITAR > GRAMM % SEP” value was 53%.

Take `C[C@]12Cc3cnn(-c4ccc(F)cc4)c3C=C1CC[C@@]2(O)CCc1cccc(F)c1CNS(=O)(=O)C1CC1` [Example 88, N-(2-fluoro-6-{2-[(4αS,5R)-1-(4-fluorophenyl)-5-hydroxy-4α-methyl-1,4,4α,5,6,7-hexahydrocyclopenta[f]indazol-5-yl]ethyl}benzyl)cyclopropanesulfonamide]: the Emax in assay [1] was 32%; in assay [2] (setting [3]), 5 to 100%; in assay [2] (setting [4]), 69%. The EC50 is 53 nM in assay [1] and 90 nM in assay [2] (Table 1, U937 cells). In addition, the “GITAR > GRAMM % SEP” value in assay [2] (Table 1) is given as 37%.

Regarding `CN(C)S(=O)(=O)NCc1c(F)cccc1CC[C@]1(O)CCC2=Cc3c(cnn3-c3ccc(F)cc3)C[C@@]21C` [Example 89, N′-(2-fluoro-6-{2-[(4αS,5R)-1-(4-fluorophenyl)-5-hydroxy-4α-methyl-1,4,4α,5,6,7-hexahydrocyclopenta[f]indazol-5-yl]ethyl}benzyl)-N,N-dimethylsulfamide], the Emax in assay [1] is 20%; in assay [2] (setting [3]) it was 5 to 100%; in assay [2] (setting [4]), 70%. For the same compound, the EC50 was 43 nM in assay [1] and 64 nM in assay [2] (Table 1, U937 cells). The “GITAR > GRAMM % SEP” value in assay [2] (Table 1) is recorded as 50%.

With `C[C@]12Cc3cnn(-c4ccc(F)cc4)c3C=C1CC[C@@]2(O)CCc1ccccc1C1(NS(=O)(=O)C2CC2)CC1` [Example 91, N-[1-(2-{2-[(4αS,5R)-1-(4-fluorophenyl)-5-hydroxy-4α-methyl-1,4,4α,5,6,7-hexahydrocyclopenta[f]indazol-5-yl]ethyl}phenyl)cyclopropyl]cyclopropanesulfonamide], the Emax in assay [1] is 46%; in assay [2] (setting [4]), 72%. In addition, the EC50 in assay [1] was 121 nM; in assay [2] (Table 1, U937 cells) it was 231 nM. Also, the “GITAR > GRAMM % SEP” value in assay [2] (Table 1) was determined as 26%.

`C[C@]12Cc3cnn(-c4ccc(F)cc4)c3C=C1CC[C@@]2(O)CCc1ccccc1CC(N)=O` [Example 107, 2-(2-{2-[(4αS,5R)-1-(4-fluorophenyl)-5-hydroxy-4α-methyl-1,4,4α,5,6,7-hexahydrocyclopenta[f]indazol-5-yl]ethyl}phenyl)acetamide]: the values for the Emax in assay [1], in assay [2] (setting [3]) and in assay [2] (setting [4]) were 37%, 5 to 100% and 66%, respectively. For the same compound, the EC50 in assay [1] was found to be 261 nM; in assay [2] (Table 1, U937 cells), 217 nM. Also, in assay [2] (Table 1), the “GITAR > GRAMM % SEP” value was 29%.

For the compound `CN(C)S(=O)(=O)Nc1c(F)cccc1CC[C@]1(O)CCC2=Cc3c(cnn3-c3ccc(F)cc3)C[C@@]21C` [Example 113, N′-(2-fluoro-6-{2-[(4αS,5R)-1-(4-fluorophenyl)-5-hydroxy-4α-methyl-1,4,4α,5,6,7-hexahydrocyclopenta[f]indazol-5-yl]ethyl}phenyl)-N,N-dimethylsulfamide], the figures for the Emax in assay [1], in assay [2] (setting [3]) and in assay [2] (setting [4]) were 32%, 5 to 100% and 71%, respectively. The EC50 in assay [1] was 205 nM; in assay [2] (Table 1, U937 cells), 207 nM. The “GITAR > GRAMM % SEP” value in assay [2] (Table 1) is on record as 39%.
